Columns and labels:
[1] = Binding affinity to microtubule by spectrofluorometry
[2] = Effect on bovine brain tubulin assembly by spectrophotometry; design: species or system Bos taurus
A2780 [3] = test: Cytotoxicity against human A2780 cells after 2 days by Alamar blue assay; type: functional, cell-based; conditions: A2780, 48 h
A2780 [4] = test: Ratio of compound IC50 to Paclitaxel IC50 for human A2780 cells; type: functional

SMILES: CC(=O)O[C@H]1C(=O)[C@@]2(C)[C@H]([C@H](OC(=O)c3ccccc3)[C@]3(O)C[C@H](OC(=O)[C@H](O)[C@@H](NC(=O)c4ccccc4)c4ccccc4)C(C)=C1C3(C)C)[C@]1(OC(C)=O)CO[C@@H]1C[C@@H]2O [PACLITAXEL]
- Kd [1]: 0.015 µM
- EC50 [2]: 0.49 µM

SMILES: CCCC[C@H](C)[C@H](OC(N)=O)[C@@H](C)[C@H](O)[C@@H](C)C/C(C)=C\[C@H](C)[C@@H](O)[C@@H](C)/C=C\[C@@H](O)CCOC(=O)c1cccc(N(C)C)c1
- IC50 (A2780 [3]): 5.4 µM
- Ratio IC50 (A2780 [4]): 386
- Kd [1]: 24 µM
- EC50 [2]: 5.2 µM

Source: ChEMBL document CHEMBL1817598, “Design, synthesis and biological evaluation of a simplified fluorescently labeled discodermolide as a molecular probe to study the binding of discodermolide to tubulin” (Bioorg Med Chem, 2011)
